Row | SMILES | melting point [°C]
1 | CC(=O)NCC1CN=C(c2ccccc2F)c2cc(Cl)ccc2N1C(C)=O (stereo unspecified) | 213 to 215
2 | CC(=O)c1cc(CC(C)O)c(OCCCCC#N)cc1O (stereo unspecified) | 86 to 88
3 | CCC(Oc1ccccc1Cl)C(=O)OC1CC(O)C=C2C=CC(C)C(CCC3CC(O)CC(=O)O3)C21 (mixture of isomers) | 145 to 147
4 | COc1ccccc1N1CC[N+]([O-])(CCN(C(=O)C2CCCCC2)c2ccccc2[N+](=O)[O-])CC1 | 128 to 132
5 | CC(C)OC(=O)Cn1c(=O)n(C)c(=O)n(-c2cc(N=c3oc(=O)n4n3CCCC4)c(F)cc2Cl)c1=O | 115 to 120
6 | COc1cc2c(cc1OCCCN1CCC(c3noc4cc(F)ccc34)CC1)CCCC2=O | 129 to 131
7 | COC(=O)c1ccc2c(c(C)nn2C)c1C(=O)NC(C)(C(N)=O)C(C)C (stereo unspecified) | 221 to 222
8 | Cc1ccc(N2CCN(c3cc4c(ncc5c4c(=O)c(C(=O)O)cn5C)c(F)c3Cl)CC2)cc1F | 360
9 | C=CCc1c(-c2cc(=O)c3c(O)c(CC=C)c(O)c(CC=C)c3o2)ccc(OC)c1O | 122 to 123
10 | CC(C)(CO)NS(=O)(=O)c1ccc(Cl)s1 | 112
11 | CCN(CC)C(=O)/C=C/C(C)Sc1nc(N)cc(Cl)n1 (stereo unspecified) | 152 to 153
12 | O=C(Nc1ccc(O)cc1)c1ccc(OC2CCCCO2)cc1 (stereo unspecified) | 173 to 174
13 | O=C(c1ccccc1F)C1CCN(CCc2c[nH]c3ccccc23)CC1 | 106 to 108
14 | COC(=O)c1cc(N)c(C(C)(C)C)c(N)c1 | 71 to 73
15 | CCOC(=O)c1c(C(F)(F)F)nc(C(F)F)c(C(=O)OC)c1NCC#N | 87 to 89
16 | COc1cc(-c2nn(C)c(C(F)(F)F)c2Cl)c(F)cc1Cl | 70 to 71
17 | CN1CCN=C1C(Br)(Br)[N+](=O)[O-] | 88 to 90
18 | Cc1cccc2oc(C(=O)Nc3ccc(-c4ccc(S(=O)(=O)NC(C(=O)O)C(C)C)cc4)cc3)c(C)c12 (stereo unspecified) | 250 to 252
19 | N#Cc1ccc(C(O)C23CCCN2C(=O)N(c2cc(Cl)cc(Cl)c2)C3=O)cc1 (stereo unspecified) | 184

Row | SMILES | melting point [°C]
20 | CC(C)(C)c1ccc(C2OCC(CO)(NC(=O)c3c(Cl)cccc3Cl)CO2)cc1 (stereo unspecified) | 178 to 180
21 | Nc1ccc(-c2nccc(-c3nc(-c4ccc(C(F)(F)F)cc4)cc(C(F)(F)F)n3)n2)cn1 | 236
22 | Cn1cncc1C(c1ccc(Cl)cc1)c1ccc2c(c1)C(c1cccc(Cl)c1)SCc1nnnn1-2 (stereo unspecified) | 162
23 | N#CC(C#N)C(=O)c1ccsc1 | 132 to 133
24 | CC1(C)CCC(C)(C)c2cc(-c3cc4ccc(C(=O)O)cc4s3)c(Br)cc21 | 272 to 275
25 | C=CCO[C@H]1[C@H](C)OC(=O)[C@@H](NC(=O)c2nccc(OC)c2OCc2ccccc2)COC(=O)[C@@H]1Cc1ccccc1 | 55 to 57
26 | CC(C)c1cccc(C(C)C)c1NC(=S)NC1CCCC(C(F)(F)F)C1 (stereo unspecified) | 67 to 75
27 | O=c1[nH]c2cc(Cl)c([N+](=O)[O-])cc2n(C2CCCCC2)c1=O | > 300
28 | CC1(C)Cc2ccsc2C=[N+]1[O-] | 136 to 138
29 | Cc1cc(C)cc(NC(=O)NC2N=C(c3ccccc3)c3ccccc3N(C)C2=O)c1 (stereo unspecified) | 267 to 269
30 | CN(C)C(=O)N1CCC(Oc2c(F)c(F)c(F)c(F)c2F)(c2ccccc2)CC1 | 92 to 96
31 | CCOC(=O)C1CCCCN1C(=O)Cl (stereo unspecified) | 121 to 123
32 | COc1ccc(-c2cnc(N)c(Sc3cc(C(F)(F)F)cc(C(F)(F)F)c3)n2)cc1 | 136 to 138
33 | CC(=O)N1CCc2cc(C(=O)CCCCCBr)ccc21 | 110 to 111
34 | CC(C)CCc1c(-c2ccc(S(N)(=O)=O)cc2)cnn(-c2ccc(F)c(Cl)c2)c1=O | 154 to 156
35 | CCOC(=O)c1cc(=O)c2ccc(OC(=S)N(C)C)cc2o1 | 160 to 161
36 | CC(C)(C)CC(=O)Nc1ccc2oc3c(c2c1)CCC3 | 196 to 197
37 | CCCCC(=O)Oc1cccc(NC(=O)CC(C)=O)c1 | 65

Continued, values first:

Row | melting point [°C] | SMILES
38 | 124 to 125 | COc1ccc(-c2c(Cl)c(CNC(=O)c3cccnc3)nc3sc4c(c23)CCN(Cc2ccccc2)C4)cc1OC
39 | 207 to 208 | COc1ccnc(C(=O)c2[nH]c3cc(Cl)ccc3c2NC(C)=O)c1
40 | 142 to 143 | CCc1c(C)nc(-c2ccccc2)nc1NCC(=O)N(C)c1ccc(Cl)cc1
41 | 171 to 173 | N#Cc1ccccc1-c1cccc(Cc2ccc(OCc3ccccc3)cc2)c1Nn1cnnc1
42 | 195 to 196 | Cc1nc(N2CCN(Cc3ccccc3)CC2)ncc1C(N)=O
43 | 202 to 203 | CCOCc1nc2c(N)nc3cc(OCCCc4cccs4)ccc3c2n1CC(C)(C)NS(C)(=O)=O
44 | 192 to 194 | Cn1cc(CC(=O)O)c2cc(Br)ccc21
45 | 167 to 169 | C[C@H]1CCCN(C(=O)[C@@H]2Cc3ccccc3N2c2nccs2)C1
46 | 88.5 to 90.5 | CSc1ccc2ncccc2c1N
47 | 110 to 112 | COc1cc(C)nc2c(O)cccc12
48 | 116 to 117 | CCCOc1ccccc1-c1nc2nc(N(CC)CC)ncc2c(=O)[nH]1
49 | 141 | COc1cc2c(cc1OC)CN(CCCCOc1ccc(NC(=O)c3cnc4ccccc4n3)cc1)CC2
50 | 197 to 199 | CCCCC(Cn1cncn1)(C(N)=O)c1ccc(Cl)cc1 (stereo unspecified)
51 | 162 to 164 | O=C(Nc1c(C(O)(C(F)(F)F)C(F)(F)F)ccc2ccccc12)c1ccno1
52 | 280 to 282 | COc1ccc(-c2c(-c3ccc(S(N)(=O)=O)cc3)[nH]c3ccccc23)cc1
53 | 189 to 190 | CNC(=O)c1cccc(NC(=O)NCc2ccccc2)c1
54 | 144 to 146 | Cc1nnc(-c2ccc(F)cc2F)n2nc(OCc3ncnn3C)c(-c3ccsc3)c12

Row | melting point [°C] | SMILES
55 | 236 to 237 | CN(C)Cc1ccc2nc(NC(=O)c3ccc(C(C)(C)C)cc3)cn2c1
56 | 152 to 153 | CC(=O)CCn1[nH]c(=O)c2ccccc2c1=O
57 | 63 to 65 | COC(=O)c1ccc2cc(CCCO)oc2c1
58 | > 320 | Cn1nnnc1-c1cn(C)c2cc(O)ccc2c1=O
59 | 187 to 190 | Nc1nc(N)c2ncn(CCC(CO)CO)c2n1
60 | 180 to 181 | COc1ccc(-c2cc3n(n2)C(=O)c2ccccc2-3)cc1
61 | 126 to 127 | COC1=C(c2ccccc2)C(CCC(=O)O)OC1=O (stereo unspecified)
62 | 77 to 79 | CCN(CC)C(=O)n1ccc(Sc2ccc(Br)cc2Cl)n1
63 | 78 to 80 | Cc1csc(C#CCCn2nc3ccccc3n2)n1
64 | 117 to 121 | Cc1cc(C)nc(N(N=O)c2ccccc2)n1
65 | 85 to 86 | CCOC(=O)c1cc2ccc3sc4ccccc4c3c2n1C
66 | 195 to 196 | O=C(O)c1csnc1-c1ccc(C(F)(F)F)cc1
67 | 143 to 144 | CCOC(=O)C1=C(C)NC(c2csc(C)n2)=NC1c1cccc(Cl)c1 (stereo unspecified)
68 | 143 | CCCCSC(Cn1cncn1)c1ccc(Cl)cc1Cl (stereo unspecified)
69 | 163 to 165 | Nc1nc(-c2cc(Cl)ccc2Cl)nc(N2CCNCC2)n1
70 | 77 to 95 | CC(C)(CC(=O)O)CC(=O)N[C@H](Cc1ccc(-c2ccccc2)cc1)C(=O)NCCCCNc1ncccn1
71 | 188 to 190 | COC(=O)c1cc2nnn(-c3ccccc3)c2nc1OCc1ncnn1C
